Test results taken from patent US4558049A, “Antipsycotic benzoxazines” (Farmitalia Carlo Erba S.p.A., priority 1982, dated 1985).
Read-outs that look alike come from different tables or passages of the source.

How the values were obtained:
[1] = test system: apomorphine-induced climbing behaviour in mice; assay: Apomorphine antagonism in mice (apomorphine-induced climbing behaviour, Protais et al.); format: in vivo; settings: Mus musculus, po
[2] = LD50 / acute toxicity in mice; settings: mouse, in vivo, po, approximate LD50
[3] = test system: neuromuscular coordination in the rat; assay: Rotarod test (neuromuscular coordination in the rat); format: in vivo; settings: p.o.
[4] = test system: conditioned Avoidance Response in the rat; assay: C.A.R. test (interference with conditioned Avoidance Response in the rat); format: in vivo; settings: p.o.
[5] = test system: rats with 6-OHDA induced unilateral lesions of the dopaminergic nigrostriatal pathway; assay: Turning-behaviour (antagonism to rotational behaviour by dopaminergic agents in rats with 6-OHDA induced unilateral lesions); format: in vivo; settings: rat, p.o.
catalepsy in rats = assay: Catalepsy induction in rats; format: in vivo; settings: rat, p.o.
[6] = Reduction of body temperature in mice (Irwin technique); settings: p.o.
[7] = test system: spontaneous activity in mice; assay: Reduction of spontaneous activity in mice (Irwin technique); settings: p.o.
[8] = test system: spontaneous activity in mice; settings: mouse, in vivo, po
[9] = mouse, in vivo, po

Row | Structure (SMILES) | ED50 [1] | LD50 [2] | Min. active dose in Rotarod test [3] | Min. active dose in C.A.R. test [4] | Min. active dose in Turning-behaviour [5] | Min. active dose in Catalepsy induction (catalepsy in rats) | Reduction of body temperature in mice (min. active dose) [6] | Reduction of spontaneous activity in mice (min. active dose) [7] | Reduction of spontaneous activity in mice (min. active dose) [8] | Reduction of body temperature in mice (min. active dose) [9]
1 | O=C1Nc2ccc(Br)cc2C2(CCN(CCCC(=O)c3ccc(F)cc3)CC2)O1 [Example 1, 1'-[3-(4-Fluorobenzoyl)propyl]spiro-(3,1-benzoxazine-6-bromo-4(2H)4'-piperidin)-2-one] | 1.7 mg/kg | > 800 mg/kg | > 50 mg/kg p.o. | 25 mg/kg p.o. | > 20 mg/kg p.o. | > 200 mg/kg p.o. | 100 mg/kg p.o. | 12.5 mg/kg p.o. |  | 
2 | O=C1Nc2ccc([N+](=O)[O-])cc2C2(CCN(CCCC(=O)c3ccc(F)cc3)CC2)O1 [Example 3, 1'-[3-(4-fluorobenzoyl)propyl]spiro-(3,1-benzoxazine-6-nitro-4(2H)4'-piperidin)-2-one] | 2.7 mg/kg | > 800 mg/kg | 50 mg/kg p.o. | 20 mg/kg p.o. | > 15 mg/kg p.o. | 200 mg/kg p.o. | 110 mg/kg p.o. | 15 mg/kg p.o. |  | 
3 | O=C(CCCN1CCC(O)(c2ccc(Cl)cc2)CC1)c1ccc(F)cc1 [Haloperidol, haloperidol, reference compound] | 0.2 mg/kg | ~75 mg/kg | 0.5 mg/kg p.o. | 0.5 mg/kg p.o. | 0.5 mg/kg p.o. | 0.5 mg/kg p.o. |  |  | 0.78 mg/kg p.o. | 3.12 mg/kg p.o.
